Experimental data: patent US7615380B2, “Methods for modulating an immune response by modulating KRC activity” (President and Fellows of Harvard College, priority 2001, dated 2009)

Key:
c-Jun/c-Fos AP-1 = test: c-Jun/c-Fos protein stability time course with cycloheximide; type: cell-based
Protocol: The above experiments mapped the interaction site of KRC with c-Jun to aa 204-1055 of KRC. The interaction of full-length KRC with c-Jun was tested. […] Time course experiments were performed in which overexpressed sense KRC or an antisense KRC previously shown to block production of endogenous KRC protein were coimmunoprecipitated with overexpressed c-Jun and c-Fos. […] The same set of experiments were performed using c-Fos, a very short-lived cellular protein. […] The ability of KRC to promote the degradation of other fos family members Fra1, Fra2 and Fos B was also tested (FIG. 23(D)). […] The protein stability of V-fos was not affected by altering levels of KRC by sense or antisense overexpression.

AP-1 = AP-1 luciferase/GFP reporter in 293T cells; type: cell-based, human
Protocol: FIG. 21(A) 293T cells were transfected with c-Jun and myc-KRCtr. 48 hours later, lysates were immunoprecipitated with anti-Myc antibody. Immunoprecipitates were probed by western blotting with anti-c-Jun antibody. FIG. 21(B) (left panel) 293T cells were cotransfected with c-Jun and full length His-KRC. 48 hours later, lysates were immunoprecipitated with anti-His antibody (DE8 Omniprobe) and precipitates were probed by western blotting with anti-c-Jun antibody. (right panel) In vitro translated and S35-labelled c-Jun and His-KRCtr were mixed and immunoprecipitated with anti-His antibody. Recovered c-Jun protein was visualized by autoradiography. FIG. 21(C) Jurkat or EL4 T cells were stimulated with PMA plus ionomycin for 45 minutes. Lysates were immunoprecipitated with anti-c-Jun antibody, and immunoprecipitates were probed with specific anti-KRC rabbit antisera. […] 24 hours later, Luciferase activity was determined as above. […] 24 hours later, luciferase activity was determined as above. […]
To examine the functional consequences of AP-1 degradation by KRC, cotransfection experiments in 293T cells with sense or antisense KRC together with a luciferase-tagged AP-1 reporter construct were performed. […] Conversely, cotransfection of antisense KRC increased AP-1 transactivation as evidenced by an increased number of GFP+ cells as well as an increase in the intensity of fluorescence per cell in. […]

TNFα = test: Northern blot of endogenous TNFα in stably transfected RAW macrophage clones; type: cell-based; details: stable RAW transfectants, baseline
Protocol: Northern blotting analysis was performed using total RNA made from RAW cell lines transfected with an empty vector as a control and from a panel of 9 independent RAW clones stably transfected with full-length KRC (upper) and 3 RAW clones stably transfected with dominant negative KRC (lower). The blot was probed with a TNFα cDNA and with HPRT as loading control.
HEK293 cells ([…] per well) were seeded in 6 well plates, and 12 h later cells were transfected with EFECTENE™ (Qiagen) with 25 ng of a 2XNFκB-luciferase (Luc) reporter gene plasmid and 0.5 μg of the indicated TRAF and KRC expression vectors. Total amounts of transfected DNA were kept constant by supplementing with control empty expression vector plasmids as needed. Cell extracts were prepared 24 h after transfection, and reporter gene activity was determined via the luciferase assay system (PROMEGA). PRSV-βGal vector (50 ng) was used to normalize for transfection efficiency by measuring β galactosidase activity using the Galacton-PLUS substrate system (TROPIX, Inc.). Whenever indicated, the cells were treated for 4 hours with TNFα or IL-1 (10 ng/ml). To generate stable transfectants, EFECTENE™ mediated transfection of the RAW cell line was performed and clones were selected and maintained in complete medium supplemented with G418 (2 mg/ml). […]

KRC: full-length KRC zinc finger protein (SEQ ID NO:2) overexpressed from an expression vector
c-Jun degradation (c-Jun/c-Fos AP-1; low dose cycloheximide): rapid degradation of c-Jun
stability of the c-Fos protein (c-Jun/c-Fos AP-1; presence of cycloheximide): compromised
c-Jun and c-Jun plus c-Fos AP-1 activity enhancement (AP-1; AP-1 luciferase reporter): approximately 5 fold
AP-1 activity (luciferase-tagged AP-1 reporter) (AP-1; sense or antisense KRC cotransfection): decreased stimulation of AP-1 activity
endogenous TNFα mRNA expression (TNFα): substantial decrease of baseline TNFα mRNA transcripts
